Assay results published in patent US9630964B2, “Fluoro-9-methyl-β-carbolines” (priority 2013, dated 2017).

Key:
[1] = test system: human neuroblastoma cells (SH-SY5Y); assay: Differentiation of human neuroblastoma cells (SH-SY5Y), morphological examination; assay type: cell-based; conditions: SH-SY5Y
Procedure: The SH-SY5Y cell line was obtained from the German collection of microorganisms and cell cultures—DSMZ, Braunschweig. The cells were cultivated in MEM (Minimum essential medium, Life Technologies) with 10% FCS (fetal calf serum, Biochrom AG) and penicillin/streptomycin (Biochrom AG). For morphological examinations the cells were seeded in a density of 1.5×10^4 cells/cm^2 in 24-well plates (Falcon, cell culture treated) with 1 mL medium. A stock solution of 10 mmol/L of the compound according to the invention 6-fluoro-9-methyl-β-carboline was prepared in 50% ethanol and sterile filtered. Five hours after seeding of the cells the compound according to the invention 6-fluoro-9-methyl-β-carboline was added in the corresponding amount to the medium achieving the desired final concentration. The medium was changed once a week. The cells were regularly microscopically examined. Microscopic images were taken at BZ Keyence 10 with a 10×lens and 4×digital zoom. An automatic contrast enhancement was made with the program BZ Analyzer.

[2] = test system: DRD2S (short variant of dopamine receptor subtype 2); assay: Quantitative RT-PCR, relative gene expression of DRD2S in SH-SY5Y cells; assay type: cell-based, human; conditions: 30 μM each
Procedure: SH-SY5Y cell lines, which were provided by the institute of human genetics of university hospital Eppendorf and which they in turn received from Braunschweig resource center, were used again for the RT-PCR experiments (reverse transcriptase polymerase chain reaction) carried out for this purpose.
The cells were incubated in MEM (Minimum essential medium, Life Technologies) with 10% FCS (fetal calf serum, Biochrom AG) and penicillin/streptomycin (Biochrom AG). The cells were seeded with a density of 1×10^5 cells/cm^2 in 25 cm^2 cell culture bottles (Falcon, cell culture treated) with 5 mL medium. Stock solutions of 10 mmol/L of compounds 9-methyl-β-carboline (AC-002 or 9MβC) and 6-fluoro-9-methyl-β-carboline (AC-102 or 6F9MβC), respectively were prepared in distillated water and sterile filtered. One day after the cell seeding the compounds were added in corresponding amounts (5-55 μL) to reach final concentration in the medium of 10 μM, 20 μM and 30 μM for 6F9MβC and 30 μM, 50 μM and 70 μM for 9MβC. The references received only the corresponding amount of solvent (distilled water). The medium was changed once a week.
The cells were regularly microscopically examined and harvest after 2, 7 and 14 days of incubation time, washed with PBS and immediately frozen at −80° C.
The RNA-isolation was done with the HighPure RNA Isolation kit of the company Roche. This isolation includes a DNaseI digestion. The concentration of RNA was measured with nanoDrop spectrometer and the RNA integrity was determined with the aid of the Bioanalyzer 2100 (Agilent). By using random hexamer primers, protector RNA inhibitor (Roche) and transcriptor reverse transcriptase (fermentas), 300 ng RNA were transcribed into cDNA per each sample.
After the reaction, this run was diluted 1:4 and thereof 2 μL per each quantitative RT-PCR were used. This was performed in a LightCycler 480 under standard conditions in the SybrGreen format with annealing temperatures determined for each primer individually. If possible, exon spanning primers were used.
The specificity was verified by melting curve analysis and subsequent gel electrophoresis. For each PCR the PCR efficiency and the Cq value was determined by the program LinRegPCR and these were used in further calculations. B2M (β2-microglobulin) was identified from multiple reference genes to be suitable for examination conditions. All results are results relative to the corresponding reference conditions, at which only solvent was administered for the specified period of time (i.e. 2 days, 7 days or 14 days). In FIGS. 5A to 5I are also relative gene expressions (relative to reference conditions) presented. Here, the 2-day exposition is presented in light grey, the 7-day exposition in dark grey and the 14-day exposition in black. Every measured value from FIGS. 5A-5I represents a mean value of 3 independent biologic samples.
Analogous to example 4 RT-PCR experiments with the inventive active agent 7-fluoro-9-methyl-β-carboline (7F9MβC) were also performed for some important cellular factors. The experimental procedure was here identical to the experiments with 6-fluoro-9-methyl-β-carboline and 9-methyl-β-carboline. Here the same (like for 6F9MβC) final concentrations of 30 μM, 50 μM and 70 μM 7F9MβC for the culture medium were employed. The examined factors were BDNF (brain-derived neurotrophic factor), Lif (Leukemia inhibitory factor), DRD2S (short variant of dopamine receptor subtype 2) as well as DKK1 (Dickkopf-related protein 1). The same primers, that were already listed for the respective target genes in example 4 (Tab. 1) were used. As already noted, especially BDNF and Lif belongs to the most important factors for cellurar repair processes after traumas in the inner ear.

[3] = test system: learning behavior; assay: Eight-armed labyrinth learning test; assay type: in vivo, rat; conditions: rats, 2 mg/kg intraperitoneally daily, 2 hours before session; control group 14 days
Procedure: In an eight-armed labyrinth the effect of 6F9MβC on the learning behavior was tested. 5 months old male rats were got used to the experimenter in daily sessions for 10 days. Afterwards, they were allowed to explore the labyrinth in multiple sessions for 2 days and they also learnt that they get a food reward there. Then the food was reduced until the body weight was reduced by 10% of the starting weight. Afterwards, at each end of the 8 arms of the labyrinth food was placed and a camera installed that recorded every movement of the animal. On the first test day the rat was placed without a prior injection on the platform in the center of the labyrinth. At the next day 2 mg/kg body weight 6-fluoro-9-methyl-β-carboline (6F9MβC) as free base dissolved in physiological sodium chloride solution was administered intraperitoneally to the rat by the experimenter. 2 hours later the animal was placed on the platform in the center of the labyrinth from where it had access to all arms. This procedure was repeated daily until the animal only did one mistake, i.e. went in an arm, which it had already entered before in the corresponding session. At the end of the session all 8 arms had to be visited.
12 rats, that were treated with 6F9MβC and a control group of 12 rats, that only got physiological sodium chloride solution, were examined. […]

Structure (SMILES): Cn1c2ccc(F)cc2c2ccncc21 [6F9MβC, 6-fluoro-9-methyl-β-carboline]
- concentration at which a comparable differentiation of the tested cells is observed ([1]; 15 days incubation): 30 µM
- effect on proliferation and morphology of cells ([1]; 15 days, increasing concentrations, pronounced at 30 μM vs 0 μM): inhibits proliferation of cells and induces sprouting of slim extensions as well as a change in size and shape of the cells
- DRD2S expression relative to expression induced by 9MβC ([2]; 2-day exposition): higher
- DRD2S expression relative to expression induced by 9MβC ([2]; 7-day exposition): lower
- DRD2S expression relative to expression induced by 9MβC ([2]; 14-day exposition): higher
- time until the criteria (only one mistake) were reached [3]: 6 days
